# From patent US10111874B2, “Combination therapies for treatment of cancer” (Araxes Pharma LLC, priority 2014, dated 2018)
# Molecular target: T1, KRAS G12C 1-169, his-tagged protein, GDP-loaded (Homo sapiens, UniProt P01116, G12C)
# T1 construct: KRAS G12C 1-169, his-tagged protein, GDP-loaded
# Assay: Biochemical assay: covalent binding to KRAS G12C analyzed by mass spectrometry; further: test concentration or dose not given here
# Conditions: compounds 1-47, measured at 24 h
# T1 sequence (P01116 1-169 isoform P01116-2 G12C): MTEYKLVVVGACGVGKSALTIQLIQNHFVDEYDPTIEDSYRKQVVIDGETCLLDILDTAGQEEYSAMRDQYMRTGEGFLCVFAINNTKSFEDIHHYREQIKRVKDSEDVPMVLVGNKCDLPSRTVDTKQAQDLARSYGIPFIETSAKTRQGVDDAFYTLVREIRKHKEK
row,SMILES,Binding %
1,"C=CC(=O)N1CCC2(C1)CN(C(=O)CNc1cc(Cl)c(Cl)cc1O)C2 [Example 40, 1-(2-(2-(4,5-dichloro-2-hydroxyphenylamino)acetyl)-2,6-diazaspiro[3.4]octan-6-yl)prop-2-en-1-one]",+++ (+++indicates binding activity greater than 50% and up to 75%)

# Same assay, conditions: compounds 48-246, measured at 2 h
row,SMILES,Binding %
1,"C=CC(=O)N1CCN(c2cnnc3cc(-c4c(C)ccc5[nH]ncc45)c(Cl)cc23)CC1 [Compound I-238, 1-(4-(6-chloro-7-(5-methyl-1H-indazol-4-yl)cinnolin-4-yl)piperazin-1-yl)prop-2-en-1-one]",+++ (+++indicates binding activity greater than 50% and up to 75%)
2,"C=CC(=O)N1CCN(c2ncnc3cc(-c4cccc5ncccc45)c(Cl)cc23)CC1 [Compound I-135, 1-(4-(6-chloro-7-(quinolin-5-yl)quinazolin-4-yl)piperazin-1-yl)prop-2-en-1-one]",+ (+indicates binding activity from 5% to 25%)
3,"C=CC(=O)N1CCN(c2ncnc3cc(-c4ccc5cn[nH]c5c4)c(Cl)cc23)CC1 [Compound I-162, 1-(4-(6-chloro-7-(1H-indazol-6-yl)quinazolin-4-yl)piperazin-1-yl)prop-2-en-1-one]",+ (+indicates binding activity from 5% to 25%)
4,"C=CC(=O)N1CCN(c2ncnc3cc(-c4cc(NC)ccc4C)c(Cl)cc23)CC1 [Compound I-191, 1-(4-(6-chloro-7-(2-methyl-5-(methylamino)phenyl)quinazolin-4-yl)piperazin-1-yl)prop-2-en-1-one]",+++ (+++indicates binding activity greater than 50% and up to 75%)
5,"C=CC(=O)N1CCN(c2ncnc3cc(-c4csc5ccccc45)c(Cl)cc23)CC1 [Compound I-198, 1-(4-(7-(benzo[d]thiophen-3-yl)-6-chloroquinazolin-4-yl)piperazin-1-yl)prop-2-en-1-one]",++++ (++++indicates binding activity greater than 75%)
6,"C=CC(=O)N1CCN(c2c(C#N)cnc3cc(-c4ccc(F)cc4F)c(Cl)cc23)CC1 [Compound I-172, 4-(4-acryloylpiperazin-1-yl)-6-chloro-7-(2,4-difluorophenyl)quinolin-3-carbonitrile]",+++ (+++indicates binding activity greater than 50% and up to 75%)
7,"C=CC(=O)N1CCN(c2ncnc3cc(-c4ccccn4)c(Cl)cc23)CC1 [Compound I-92, 1-(4-(6-chloro-7-(pyridin-2-yl)quinazolin-4-yl)piperazin-1-yl)prop-2-en-1-one]",+ (+indicates binding activity from 5% to 25%)
8,"CN(C)C/C=C/C(=O)N1CCN(c2ncnc3c(F)c(-c4ccccc4F)c(Cl)cc23)CC1 [Compound I-229, (E)-1-(4-(6-chloro-8-fluoro-7-(2-fluorophenyl)quinazolin-4-yl)piperazin-1-yl)-4-(dimethylamino)but-2-en-1-one]",++ (++indicates binding activity greater than 25% and up to 50%)
9,"C=CC(=O)N1CCN(c2ncnc3cc(-c4c(O)cccc4F)c(Cl)cc23)CC1 [Compound I-138, 1-(4-(6-chloro-7-(2-fluoro-6-hydroxyphenyl)quinazolin-4-yl)piperazin-1-yl)prop-2-en-1-one]",++++ (++++indicates binding activity greater than 75%)
10,"C=CC(=O)N1CCN(c2ncnc3cc(-c4cccc(C(=O)NC5CC5)c4)c(Cl)cc23)CC1 [Compound I-142, 3-(4-(4-acryloylpiperazin-1-yl)-6-chloroquinazolin-7-yl)-N-cyclopropylbenzamide]",+ (+indicates binding activity from 5% to 25%)
11,"C=CC(=O)N1CCN(c2ncnc3cc(-c4ccccc4-c4nccs4)c(Cl)cc23)CC1 [Compound I-186, 1-(4-(6-chloro-7-(2-(thiazol-2-yl)phenyl)quinazolin-4-yl)piperazin-1-yl)prop-2-en-1-one]",+++ (+++indicates binding activity greater than 50% and up to 75%)
12,"C=CC(=O)N1CCN(c2ncnc3c(F)c(-c4ccc(F)cc4F)c(Cl)cc23)CC1 [Compound I-224, 1-(4-(6-chloro-7-(2,4-difluorophenyl)-8-fluoroquinazolin-4-yl)piperazin-1-yl)prop-2-en-1-one]",+++ (+++indicates binding activity greater than 50% and up to 75%)
13,"C=CC(=O)N1CCN(c2ncnc3cc(-c4cc(Cl)ccc4O)c(Cl)cc23)CC1 [Compound I-118, 1-(4-(6-chloro-7-(5-chloro-2-hydroxyphenyl)quinazolin-4-yl)piperazin-1-yl)prop-2-en-1-one]",+++ (+++indicates binding activity greater than 50% and up to 75%)
14,"C=CC(=O)N1CCN(c2c(C#N)cnc3cc(-c4cc(O)ccc4Cl)c(Cl)cc23)CC1 [Compound I-184, 4-(4-acryloylpiperazin-1-yl)-6-chloro-7-(2-chloro-5-hydroxyphenyl)quinoline-3-carbonitrile]",++++ (++++indicates binding activity greater than 75%)
15,"C=CC(=O)N1CCN(c2ncnc3cc(-c4ccccc4C(N)=O)c(C(F)(F)F)cc23)CC1 [Compound I-211, 2-(4-(4-acryloylpiperazin-1-yl)-6-(trifluoromethyl)quinazolin-7-yl)benzamide]",+ (+indicates binding activity from 5% to 25%)
16,"C=CC(=O)N1CCN(c2ncnc3cc(-c4ccccc4CC)c(Cl)cc23)CC1 [Compound I-77, 1-(4-(6-chloro-7-(2-ethylphenyl)quinazolin-4-yl)piperazin-1-yl)prop-2-en-1-one]",+++ (+++indicates binding activity greater than 50% and up to 75%)
17,"C=CC(=O)N1CCN(c2ncnc3cc(-c4ccccc4Cl)c(Cl)cc23)CC1 [Compound I-72, 1-(4-(6-chloro-7-(2-chlorophenyl)quinazolin-4-yl)piperazin-1-yl)prop-2-en-1-one]",++ (++indicates binding activity greater than 25% and up to 50%)
18,"C=CC(=O)N1CCN(c2nc(OC)nc3cc(-c4ccccc4)c(Cl)cc23)CC1 [Compound I-94, 1-(4-(6-chloro-2-methoxy-7-phenylquinazolin-4-yl)piperazin-1-yl)prop-2-en-1-one]",++ (++indicates binding activity greater than 25% and up to 50%)
19,"C=CC(=O)N1CCN(c2ncnc3cc(-c4ccccc4O)c(Cl)cc23)CC1C#N (centres unmarked) [Compound I-146, 1-acryloyl-4-(6-chloro-7-(2-hydroxyphenyl)quinazolin-4-yl)piperazine-2-carbonitrile]",++++ (++++indicates binding activity greater than 75%)
20,"C=CC(=O)N1CCN(c2ncnc3cc(-c4ccccc4OC)c(Cl)cc23)CC1 [Compound I-97, 1-(4-(6-chloro-7-(2-methoxyphenyl)quinazolin-4-yl)piperazin-1-yl)prop-2-en-1-one]",++ (++indicates binding activity greater than 25% and up to 50%)

# Same assay, conditions: compounds 247-342, measured at 30 min
row,SMILES,Binding %
1,"C=CC(=O)N1CCN(c2ncnc3cc(-c4c(O)cccc4F)c(Cl)c(C(F)(F)F)c23)CC1 [Compound 318, 1-(4-(6-chloro-7-(2-fluoro-6-hydroxyphenyl)-5-(trifluoromethyl)quinazolin-4-yl)piperazin-1-yl)prop-2-en-1-one]",+ (+indicates binding activity from 5% to 25%)
2,"C=CC(=O)N1CCN(c2ncnc3c(F)c(-c4cccc5c(C)n[nH]c45)c(Cl)cc23)CC1 [Compound 324, 1-(4-(6-chloro-8-fluoro-7-(3-methyl-1H-indazol-7-yl)quinazolin-4-yl)piperazin-1-yl)prop-2-en-1-one]",+ (+indicates binding activity from 5% to 25%)
3,"C/C=C/C(=O)N1CCN(c2ncnc3c(F)c(-c4cc(O)cc5ccccc45)c(Cl)cc23)CC1C (centres unmarked) [Compound 328, (E)-1-(4-(6-chloro-8-fluoro-7-(3-hydroxynaphthalen-1-yl)quinazolin-4-yl)-2-methylpiperazin-1-yl)but-2-en-1-one]",+ (+indicates binding activity from 5% to 25%)
4,"C=CC(=O)N1CCN(c2ncnc3c(F)c(-c4c(F)ccc5[nH]ncc45)c(Cl)cc23)CC1 [Compound 331, 1-(4-(6-chloro-8-fluoro-7-(5-fluoro-1H-indazol-4-yl)quinazolin-4-yl)piperazin-1-yl)prop-2-en-1-one]",++ (++indicates binding activity greater than 25% and up to 50%)
5,C=CC(=O)N1CCN(c2ncnc3c(F)c(-c4ccc(F)cc4F)c(F)cc23)CC1 [Compound 296],+ (+indicates binding activity from 5% to 25%)
6,"C=CC(=O)N1CCN(c2c(C#N)cnc3c(F)c(-c4c(O)ccc5ccccc45)c(Cl)cc23)CC1 [Compound I-269, 4-(4-acryloylpiperazin-1-yl)-6-chloro-8-fluoro-7-(2-hydroxynaphthalen-1-yl)quinoline-3-carbonitrile]",+++ (+++indicates binding activity greater than 50% and up to 75%)
7,"C=CC(=O)N1CCN(c2ncnc3c(F)c(-c4c(C)ccc5[nH]nc(F)c45)c(Cl)cc23)CC1 [Compound 340, 1-(4-(6-chloro-8-fluoro-7-(3-fluoro-5-methyl-1H-indazol-4-yl)quinazolin-4-yl)piperazin-1-yl)prop-2-en-1-one]",++++ (++++indicates binding activity greater than 75%)

# Same assay, conditions: determined at 2 hrs
row,SMILES,Binding %
1,"C=CC(=O)N1CC(N2CCN(C(=O)CNc3cc(C(C)C)c(Cl)cc3O)CC2)C1 [II-50, 1-(3-(4-(2-(4-Chloro-2-hydroxy-5-isopropylphenylamino)acetyl)piperazin-1-yl)azetidin-1-yl)prop-2-en-1-one]",++ (++indicates binding activity greater than 20%)

# Same assay, conditions: determined at 24 hrs
row,SMILES,Binding %
1,"C=CC(=O)N1CC(N2CCN(C(=O)Cn3ccc4cc(Cl)c(Cl)cc43)CC2)C1 [II-30, 1-(3-(4-(2-(5,6-dichloro-1H-indol-1-yl)acetyl)piperazin-1-yl)azetidin-1-yl)prop-2-en-1-one]",+ (+indicates binding activity from 5% to 15%)
2,"C=CS(=O)(=O)N1CCN(C2CN(C(=O)CNc3cc(Cl)c(Cl)cc3O)C2)CC1 [II-40, 2-(4,5-dichloro-2-hydroxyphenylamino)-1-(3-(4-(vinylsulfonyl)-piperazin-1-yl)azetidin-1-yl)ethanone]",++++ (++++indicates binding activity greater than 50%)
3,"CN(C)C/C=C/C(=O)N1CC(N2CCN(C(=O)CNc3cc(Cl)c(Cl)cc3O)CC2)C1 [II-20, (E)-1-(3-(4-((4,5-dichloro-2-hydroxyphenyl)-glycyl)piperazin-1-yl)azetidin-1-yl)-4-(dimethylamino)but-2-en-1-one]",++ (++indicates binding activity greater than 15% and up to 25%)
